# Test results from ChEMBL document CHEMBL3885861, “Open TG-GATES”.
# Species: Rattus norvegicus
# Test: Open TG-GATES - Regimen: Single
# Format: toxicity, organism-based, Sprague-Dawley
# Set-up: regimen Single, gender Male, age 6 weeks
# Conditions: in vivo, po, 200 mg/kg, route gavage, dose level Low; for APTT / Bas / Eos / Fbg / Hb / Ht / Lym / MCH / MCHC / MCV / Mono / Neu / PT / Plat / RBC / Ret / WBC: tissue Blood; for KIDNEY_L / KIDNEY_R / KIDNEY_TOTAL: tissue Kidney; for LIVER: tissue Liver; for A/G / ALP / ALT / AST / BUN / CRE / Ca / Cl / DBIL / GLC / IP / K / LDH / Na / PL / RALB / TBIL / TC / TG / TP / gamma-GTP: tissue Plasma
smiles,measurement,setting,value
NNC(=O)c1ccncc1 [ISONIAZID],TERMINAL_BW,3 h,222.6 g
same,APTT,3 h,18.4 s
same,Bas,3 h,0%
same,Eos,3 h,0.8%
same,Fbg,3 h,239.8 mg/dL
same,Hb,3 h,13.6 g/dL
same,Ht,3 h,38%
same,Lym,3 h,74.4%
same,MCH,3 h,22.1 pg
same,MCHC,3 h,35.8%
same,MCV,3 h,61.6 fL
same,Mono,3 h,2%
same,Neu,3 h,22.4%
same,PT,3 h,12.2 s
same,Plat,3 h,126 x10_4/uL
same,RBC,3 h,617.4 x10_4/ul
same,Ret,3 h,7.7%
same,WBC,3 h,80.9 x10_2/uL
same,KIDNEY_L,3 h,1 g
same,KIDNEY_R,3 h,1 g
same,KIDNEY_TOTAL,3 h,2 g
same,LIVER,3 h,9.3 g
same,A/G,3 h,1.6
same,ALP,3 h,918.8 IU/L
same,ALT,3 h,35.2 IU/L
same,AST,3 h,70 IU/L
same,BUN,3 h,8.8 mg/dL
same,CRE,3 h,0.4 mg/dL
same,Ca,3 h,10.3 mg/dL
same,Cl,3 h,105.2 meq/L
same,DBIL,3 h,0.066 mg/dL
same,GLC,3 h,211 mg/dL
same,IP,3 h,10.1 mg/dL
same,K,3 h,3.6 meq/L
same,LDH,3 h,175.2 IU/L
same,Na,3 h,142.8 meq/L
same,PL,3 h,137 mg/dL
same,RALB,3 h,3.5 g/dL
same,TBIL,3 h,0.1 mg/dL
same,TC,3 h,76.4 mg/dL
same,TG,3 h,57.8 mg/dL
same,TP,3 h,5.7 g/dL
same,gamma-GTP,3 h,1 IU/L
same,TERMINAL_BW,6 h,219 g
same,APTT,6 h,18.5 s
same,Bas,6 h,0%
same,Eos,6 h,1%
same,Fbg,6 h,225 mg/dL
same,Hb,6 h,13.7 g/dL
same,Ht,6 h,38.3%
same,Lym,6 h,76.4%
same,MCH,6 h,21.7 pg
same,MCHC,6 h,35.8%
same,MCV,6 h,60.5 fL
same,Mono,6 h,2.6%
same,Neu,6 h,19%
same,PT,6 h,12 s
same,Plat,6 h,126.8 x10_4/uL
same,RBC,6 h,633.8 x10_4/ul
same,Ret,6 h,7.6%
same,WBC,6 h,87.2 x10_2/uL
same,KIDNEY_L,6 h,0.9 g
same,KIDNEY_R,6 h,0.9 g
same,KIDNEY_TOTAL,6 h,1.9 g
same,LIVER,6 h,9.6 g
same,A/G,6 h,1.5
same,ALP,6 h,735.6 IU/L
same,ALT,6 h,28.4 IU/L
same,AST,6 h,58 IU/L
same,BUN,6 h,8.2 mg/dL
same,CRE,6 h,0.4 mg/dL
same,Ca,6 h,10.2 mg/dL
same,Cl,6 h,104.8 meq/L
same,DBIL,6 h,0.064 mg/dL
same,GLC,6 h,211 mg/dL
same,IP,6 h,9.5 mg/dL
same,K,6 h,3.9 meq/L
same,LDH,6 h,197.4 IU/L
same,Na,6 h,142.4 meq/L
same,PL,6 h,140.8 mg/dL
same,RALB,6 h,3.3 g/dL
same,TBIL,6 h,0.1 mg/dL
same,TC,6 h,76 mg/dL
same,TG,6 h,71.2 mg/dL
same,TP,6 h,5.5 g/dL
same,gamma-GTP,6 h,1 IU/L
